What was measured:
[1] = tested on: bone marrow (BM) mononuclear cells isolated from a patient with smoldering multiple myeloma (SMM); assay: Cellular proliferation of SMM bone marrow mononuclear cells; format: cell-based, human; settings: 100 nM to 10000 nM, 72 hr
Text: To explore the effects of SAC in the context of SMM, the present inventors tested the activity of SAC in bone marrow (BM) mononuclear cells isolated from a patient with smoldering multiple myeloma (SMM). To isolate the BM mononuclear cells, heparinized BM samples were freshly obtained from a SMM patient, diluted in PBS, and subjected to Ficoll-Hypaque density separation. Mononuclear cells are carefully collected from the PBS-Ficoll interface, washed in PBS and pelleted. The cell proliferation assay was performed by seeding the SMM BM mononuclear cells in 96-well plates at a density of 5000 cells per well. After overnight incubation, cells were treated with SAC at concentrations ranging from 100 nM to 10000 nM. After a 72 hr incubation period, proliferation was assessed using a tetrazolium dye reduction assay (CellTiter 96 AQueous Non-Radioactive Cell Proliferation Assay; Promega, Madison, Wis.). Absorbance was recorded on a microplate reader at 490 nm. Cellular proliferation was expressed as a percentage with vehicle-treated cells set at 100%. Each assay was performed in triplicate with mean values reported.

[2] = tested on: panel of 60 different cancer cell lines; assay: NCI 60 cell screen growth inhibitory activity; format: cell-based; settings: NCI 60 cell panel
Text: Although SAC has been used to treat other types of cancer including colon, lung, breast and liver, the present inventors are unaware of any studies pertaining to its efficacy in MM, MGUS or SMM. One major difference between these types of cancers relates to the fact that those that have been assessed with regard to SAC' s efficacy are solid tumors, whereas MM is a blood cancer. Further to this point, the present inventors submitted SAC for analysis in the Developmental Therapeutics Program at the NCI/NIH. The growth inhibitory activity of SAC was assessed in the NCI 60 cell screen, which is a panel of 60 different cancer cell lines. […] SAC anti-cancer activity must, therefore, be determined empirically for each cancer, due to the lack of predictability of response. Therefore, a compound's ability to act as a therapeutic agent in one cancer, e.g. colon, is not necessarily predictive of its properties with respect to a different cancer, even a related cancer. It is also noteworthy that no MM cell lines are represented in the 60 cell panel. This underscores the fact that, in advance of the present findings, MM cell lines were not thought to be suitable targets for examining SAC anti-cancer activity.

[3] = tested on: ARP1 MM cells; assay: Cellular proliferation by MTT assay (CellTiter 96 AQ); format: cell-based; settings: Homo sapiens, ARP-1, 72 hr treatment
Text: (§1) The growth inhibitory activity of SAC was further characterized by MTT assay. These experiments assess cellular proliferation using the CellTiter 96 AQ Non-Radioactive Cell Proliferation Assay (Promega). This assay determines the number of living cells based upon the bioreduction of MTS tetrazolium compound into a colored formazan product. The quantity of product, as measured by absorbance on a microplate reader at 495 nm, is directly proportional to the number of living cells in culture. All cells were seeded in 96-well plates at a density of 5,000 cells per well. After overnight incubation, cells were treated with SAC at the indicated concentrations. After a 72 hr incubation period, proliferation was assessed. Cellular proliferation was expressed as a percentage with vehicle-treated cells set at 100%. See, for example, FIG. 2.
(§2) The cell proliferation assay performed to generate the results presented in FIG. 5, for example, was performed as described elsewhere herein. Briefly, all cells were seeded in 96-well plates at a density of 5000 cells per well. After overnight incubation, cells were treated with a candidate compound at concentrations ranging from 100 nM to 10000 nM. After a 72 hr incubation period, proliferation was assessed using a tetrazolium dye reduction assay (CellTiter 96 AQueous Non-Radioactive Cell Proliferation Assay; Promega, Madison, Wis.). Absorbance was recorded on a microplate reader at 490 nm. Cellular proliferation was expressed as a percentage with vehicle-treated cells set at 100%. Each assay was performed in triplicate with mean values reported.

[4] = tested on: KMS11 MM cells; assay: as above; format: cell-based; settings: Homo sapiens, KMS-11, 72 hr treatment
Text: as §1, §2

[5] = tested on: KMS11 and ARP1 multiple myeloma cells; assay: XBP1 cleavage assay (semi-quantitative RT-PCR); format: cell-based, human; settings: 0.5 uM SAC, 24 hours
Experimental: The XBP1 cleavage assay used to generate the results presented in FIG. 6 was performed as follows. KMS11 and ARP1 cells were treated with 0.5 uM SAC or 10 ng/ml tunicamycin (TM, positive control) for 24 hours. Total RNA was isolated from lysed cells with the RNeasy Mini kit (Qiagen, Germantown, Md., USA). XBP1 splicing was assessed by semi-quantitative RT-PCR as described previously (Lin, et al. Science, 2007. 318(5852):944-9; Manga et al. Pigment Cell Melanoma Res, 2010. 23(5):627-34; the entire content of each of which is incorporated herein by reference). cDNA was produced from total RNA preps using ImProm-II Reverse Transcription System (Promega). Primers spanning the fragment of XBP1 containing the intron targeted by Irela were used: 5′-[…]-3′ and 5′-[…]-3′. The thermal PCR cycling conditions are as follows: 95° C. for 5 min, 95° C. for 1 min, 58° C. for 30 s, 72° C. for 30 s, and 72° C. for 5 min with 35 cycles of amplification. In order to properly distinguish the PCR products, samples were digested with Pst1 (New England Biolabs, Ipswich, Mass., USA) that only cuts the unspliced cDNA (Calfon et al. Nature, 2002. 415(6867):92-6). Products were then separated on a 2.0% agarose/1× TAE gel and visualized by ethidium bromide.

[6] = tested on: KMS11 and ARP-1 MM cells expressing Gluc; assay: Gluc (Gaussia luciferase) secretion screen; format: cell-based, human; settings: 5 μM compound, 24 hours, % RLU relative to DMSO control
Text: Using decreased protein processing in the secretory pathway as a measurable hallmark of ER stress, the screen described herein employs the naturally secreted Gaussia luciferase (Gluc) as a reporter that can be easily monitored through extracellular release of luciferase activity in real time. KMS11 and ARP-1 MM cells expressing Gluc were exposed to compounds in a natural products library in order to identify those which potentially induce ER stress as measured by inhibition of Gluc secretion. Both KMS11 and ARP-1 are human MM cells lines routinely used in the literature as in vitro models of MM. See, for example, Paterson et al., Br J Haematol, 2004, 124, 595-603; Pedranzini et al., Cancer Res, 2006, 66, 9714-9721; Stein et al., Clin Cancer Res, 2009, 15, 2808-2817; St-Germain J R. et al., Proc Natl Acad Sci USA, 2009, 106, 20127-20132; Gojo et al., Clin Cancer Res, 2002, 8, 3527-3538; Drucker et al., Carcinogenesis, 2006, 27, 197-204; Weiss et al., Br J Cancer, 2012, 107, 1844-1852; and Wang et al., Clin Cancer Res, 2006, 12, 49-56; the entire content of each of which is incorporated herein by reference. […] For screening, KMS11 and ARP1 cells were seeded in 96-well plates and treated with 5 μM of compounds from the Spectrum library (Microsource Discoveries) for 24 hours. Conditioned medium from each compound treatment was harvested to assay Gluc secretion alongside samples treated with DMSO alone, BTZ and TM as controls. Compounds of interest were considered to be those that inhibit Gluc secretion in both cell lines at least 30% after 24 hours treatment. See, for example, FIG. 1. […] For screening, […] Conditioned medium from each compound treatment was harvested to assay Gluc secretion alongside samples treated with DMSO alone, BTZ and TM as controls. Compounds of interest were considered to be those that inhibit Gluc secretion in both cell lines by at least 30% after 24 hours treatment. […]

[7] = tested on: KMS11 MM cells; assay: Western blotting of UPR markers and apoptotic marker; format: cell-based, human; settings: western blot
Text: In order to investigate the mechanism of SAC mediated ER stress response, the present inventors evaluated key unfolded protein response (UPR) markers including phospho-eIF2α and BIP as well as the apoptotic marker cleaved PARP by standard western blotting techniques. […] See also FIG. 3.

Compound | inhibition of cellular proliferation [1] | mean growth percent across all 60 cell lines [2] | IC50 [3] [nM] | IC50 [4] [nM] | splicing of XBP1 [5] | inhibition of Gluc secretion [6] | BIP expression [7] | cleavage of PARP [7] | phosphorylation of eIF2-α [7] | inhibition of Gluc secretion ([6]; listed as alliicin)
C=CCSC[C@H](N)C(=O)O [SAC, S-allylcysteine] | dose-dependent inhibition of cellular proliferation | 106 | 1900 | 1500 | enhanced splicing of the UPR transcription factor XBP1 | inhibited Gluc secretion as effectively as 5 μM BTZ | increased BIP expression | cleavage of PARP | enhanced phosphorylation of eIF2-α | 
CCCSC[C@H](N)C(=O)O [SPC, S-propyl cysteine, reference compound] |  |  | > 10000 | > 10000 |  |  |  |  |  | 
C=CC[S+]([O-])C[C@H](N)C(=O)O (stereo partly shown) [alliin, Allylcysteine sulfoxide] |  |  |  |  |  | not found to be effective at inhibiting GLUC secretion |  |  |  | did not exhibit an ability to target ER stress mediated pathways
